# Experimental data as given in patent US12662491B2 (Redona Therapeutics, Inc., priority 2020, dated 2026).
# Counter-ions that a name gives are not always drawn.
# Molecular target: T1, Zcchc11 enzyme (Homo sapiens, UniProt Q5TAX3)
# T1 construct: made in house; host or cells: HEK293 cells (Zcchc11); E. coli Rosetta II (LIN28A)
# T1 sequence (Q5TAX3 212-1420): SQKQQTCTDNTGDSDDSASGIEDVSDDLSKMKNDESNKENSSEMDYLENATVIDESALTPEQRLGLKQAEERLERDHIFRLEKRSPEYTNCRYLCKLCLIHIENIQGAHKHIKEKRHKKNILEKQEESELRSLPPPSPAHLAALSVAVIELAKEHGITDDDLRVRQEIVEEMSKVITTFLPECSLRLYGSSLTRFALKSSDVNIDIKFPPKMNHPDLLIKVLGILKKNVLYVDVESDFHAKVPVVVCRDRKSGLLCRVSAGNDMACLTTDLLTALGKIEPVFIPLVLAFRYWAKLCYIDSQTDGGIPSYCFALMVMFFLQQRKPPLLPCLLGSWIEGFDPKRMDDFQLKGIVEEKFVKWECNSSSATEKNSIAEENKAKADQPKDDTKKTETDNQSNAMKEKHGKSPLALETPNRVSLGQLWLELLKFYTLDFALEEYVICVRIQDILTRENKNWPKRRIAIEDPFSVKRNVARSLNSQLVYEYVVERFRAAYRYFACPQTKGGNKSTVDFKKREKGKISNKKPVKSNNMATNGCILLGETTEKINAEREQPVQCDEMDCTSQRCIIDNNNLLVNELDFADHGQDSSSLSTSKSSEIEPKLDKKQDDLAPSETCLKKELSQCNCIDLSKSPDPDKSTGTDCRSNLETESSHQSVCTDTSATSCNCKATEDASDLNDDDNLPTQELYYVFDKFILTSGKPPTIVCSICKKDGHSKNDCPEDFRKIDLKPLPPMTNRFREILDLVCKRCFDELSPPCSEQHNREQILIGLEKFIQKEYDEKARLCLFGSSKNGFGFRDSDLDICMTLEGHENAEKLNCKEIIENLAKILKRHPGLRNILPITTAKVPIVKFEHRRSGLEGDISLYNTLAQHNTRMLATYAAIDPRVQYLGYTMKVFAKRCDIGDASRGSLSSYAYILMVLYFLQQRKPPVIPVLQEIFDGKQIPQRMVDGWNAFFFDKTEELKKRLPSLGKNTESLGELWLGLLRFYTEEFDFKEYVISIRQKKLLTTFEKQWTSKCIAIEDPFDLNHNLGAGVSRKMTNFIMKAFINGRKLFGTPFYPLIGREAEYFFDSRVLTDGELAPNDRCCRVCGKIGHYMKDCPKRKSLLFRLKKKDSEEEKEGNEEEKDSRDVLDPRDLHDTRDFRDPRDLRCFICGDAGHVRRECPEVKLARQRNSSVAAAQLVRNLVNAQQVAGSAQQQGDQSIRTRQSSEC
# Assay: TUTase assay (Zcchc11 assay, Lin28a-dependent polyuridylation of pre-let-7)
# Format: biochemical
# Settings: Lin28a-dependent Zcchc11 (Z11) TUTase activity; read-out: Potency Lin28a-dep Z11 IC50
# Experimental: The purpose of the Zcchc11 assay is to determine compound potency against Zcchc11 enzyme through the measurement of IC50. Compound inhibition is measured as a function of polyuridine tails added to RNA substrates in the presence of active TUTase, UTP, and inhibitor. The Zcchc11 assay was done in a black, non-binding, 384 well plate (Corning #3575). All steps were performed at room temperature. For a typical assay, a 29 ul aliquot of assay buffer (50 mM HEPES pH 7.3, 150 mM KCl, 5 mM MgCl2, 10 mM DTT, 0.01% Triton X-100, 40 U/ml RNAsin (Promega)) containing LIN28A protein (final concentration: 10 nM) is added to each well. Next, 1 ul of compound in 100% DMSO is transferred from a compound dilution plate in which the compound is serially diluted. Next, 10 ul of a 5× mix of Zcchc11 and RNA substrate (5′-fluorescein labeled pre-let-7 miRNA (Dharmacon)) is added (final concentrations: 0.2 nM and 2 nM, respectively). The plate is placed on a plate shaker for 30 seconds to produce mixing, then incubated for 30 minutes. Next, 10 ul of a 5× mix of UTP and the quenching probe (3′-rhodamine labeled A20, polyadenosine nucleotide, (IDT)) is added (final concentrations: 5 uM and 4 nM, respectively). The plate is immediately placed in a Biotek Cytation 5 plate reader, and the time-dependent decrease in fluorescein fluorescence resulting from annealing of the A20 probe to polyuridine tails is recorded, using the kinetics mode of the reader. Reaction rates are obtained using linear fits to the early portion of progress curves. IC50 values are calculated using a four parameter fit with 100% enzyme activity determined from the DMSO control and 0% activity from control samples lacking UTP.
# The LIN28A protein was expressed in and purified from E. coli, strain Rosetta II (Novagen). The entire coding sequence of the human, wild-type protein was cloned into expression vector pMAL (NEB), down-stream from a maltose-binding protein tag. The linker sequence contained a TEV protease cleavage site. The protein was purified from bacterial extracts using an MBP-Trap column (GE Healthcare Life Sciences), followed by tag cleavage and removal of the tag by ion-exchange chromatography. When necessary, contaminating bacterial RNA was removed using the procedure describe by Faehnle C R. et al. (2017) Multi-domain utilization by TUT4 and TUT7 in control of let-7 biogenesis. Nat Struct Mol Biol, 24:658-665.
# The Zcchc11 protein was expressed in and purified from HEK293 cells. A truncated protein comprising residues 212-1420 of the human sequence was cloned into expression vector pTT5 (Viva Biotech) down-stream from a maltose-binding protein tag. The linker sequence contained a TEV protease cleavage site, and a FLAG tag was added to the carboxyl terminus of the protein. The protein was purified from cell extracts using an MBP-Trap column (GE Healthcare Life Sciences), followed by tag cleavage and further enrichment of the full length construct using anti-FLAG affinity media (Sigma Aldrich).
# “+” represents an IC50 value that is greater than 50 μM; “++” represents an IC50 value that is greater than 10 μM and equal to or less than 50 μM; “+++” represents an IC50 value that is greater than 1 μM and equal to or less than 10 μM; and “++++” represents an IC50 value that is equal to or less than 1 μM.
row,SMILES,IC50 [µM]
1,"O=C(O)c1cn(-c2cnccn2)c2cc(N3CCC[C@@H]3COc3ncccc3F)c(F)cc2c1=O (racemic) [Compound 174, rac-(R)-6-fluoro-7-(2-(((3-fluoropyridin-2-yl)oxy)methyl)pyrrolidin-1-yl)-4-oxo-1-(pyrazin-2-yl)-1,4-dihydro-quinoline-3-carboxylic acid]",≤ 1
2,"CN1CC(n2cc(-n3cc(C(=O)O)c(=O)c4cc(Cl)c(N5CCC[C@@H]5COc5ncccc5Cl)cc43)cn2)C1 (racemic) [Compound 175, rac-(R)-6-chloro-7-(2-(((3-chloropyridin-2-yl)oxy)methyl)pyrrolidin-1-yl)-1-(1-(1-methylazetidin-3-yl)-1H-pyrazol-4-yl)-4-oxo-1,4-dihydro-quinoline-3-carboxylic acid]",≤ 1
3,"CN(C(=O)[C@H]1CCCN1c1cc2c(cc1Cl)c(=O)c(C(=O)O)cn2-c1cnccn1)c1ccccn1 (racemic) [Compound 178, rac-(R)-6-chloro-7-(2-(methyl (pyridin-2-yl)carbamoyl)pyrrolidin-1-yl)-4-oxo-1-(pyrazin-2-yl)-1,4-dihydro-quinoline-3-carboxylic acid]",> 50
4,"Cc1c(-n2cc(C(=O)O)c(=O)c3cc(Cl)c(N4CCC[C@@H]4COc4ncccc4Cl)cc32)cnn1C (racemic) [Compound 179, rac-(R)-6-chloro-7-(2-(((3-chloropyridin-2-yl)oxy)methyl)pyrrolidin-1-yl)-1-(1,5-dimethyl-1H-pyrazol-4-yl)-4-oxo-1,4-dihydro-quinoline-3-carboxylic acid]",≤ 1
5,"Nc1ccc(-n2cc(C(=O)O)c(=O)c3cc(Cl)c(N4CC(c5ccccn5)C[C@@H]4COc4ncccc4Cl)cc32)cn1 (mixture of isomers) [Compound 180, rac-1-(6-aminopyridin-3-yl)-6-chloro-7-((2R)-2-(((3-chloropyridin-2-yl)oxy)methyl)-4-(pyridin-2-yl)pyrrolidin-1-yl)-4-oxo-1,4-dihydro-quinoline-3-carboxylic acid]",≤ 1
6,"O=C(O)c1cn(-c2cnc3c(n2)COC3)c2cc(N3CCC[C@@H]3COc3ncccc3Cl)c(Cl)cc2c1=O (racemic) [Compound 182, rac-(R)-6-chloro-7-(2-(((3-chloropyridin-2-yl)oxy)methyl)pyrrolidin-1-yl)-1-(5,7-dihydrofuro [3,4-b]pyrazin-2-yl)-4-oxo-1,4-dihydro-quinoline-3-carboxylic acid]",≤ 1
7,"Cn1cc(-n2cc(C(=O)O)c(=O)c3cc(C#N)c(N4CCC[C@@H]4COc4ncccc4F)nc32)cn1 (racemic) [Compound 183, rac-(R)-6-cyano-7-(2-(((3-fluoropyridin-2-yl)oxy)methyl)pyrrolidin-1-yl)-1-(1-methyl-1H-pyrazol-4-yl)-4-oxo-1,4-dihydro-1,8-naphthyridine-3-carboxylic acid]",1 to 10
8,"CN(C)C1CN(c2ccc(-n3cc(C(=O)O)c(=O)c4cc(Cl)c(N5CCC[C@@]5(C)COc5ncccc5Cl)nc43)cn2)C1 (racemic) [Compound 186, rac-(R)-6-chloro-7-(2-(((3-chloropyridin-2-yl)oxy)methyl)-2-methyl-pyrrolidin-1-yl)-1-(6-(3-(dimethyl-amino)azetidin-1-yl)pyridin-3-yl)-4-oxo-1,4-dihydro-1,8-naphthyridine-3-carboxylic acid]",≤ 1
9,"Cc1ccc(Cl)c(OC[C@H]2CCCN2c2cc3c(cc2Cl)c(=O)c(C(=O)O)cn3-c2ccc(N3CC(N(C)C)C3)nc2)n1 (racemic) [Compound 187, rac-(R)-6-chloro-7-(2-(((3-chloro-6-methylpyridin-2-yl)oxy)methyl)pyrrolidin-1-yl)-1-(6-(3-(dimethyl-amino)azetidin-1-yl)pyridin-3-yl)-4-oxo-1,4-dihydro-quinoline-3-carboxylic acid]",≤ 1
10,"CN(C)C1CN(c2ccc(-n3cc(C(=O)O)c(=O)c4cc(Cl)c(N5CC(c6cnn(C)c6)C[C@@H]5COc5ncccc5Cl)cc43)cn2)C1 (mixture of isomers) [Compound 188, rac-6-chloro-7-((2R)-2-(((3-chloropyridin-2-yl)oxy)methyl)-4-(1-methyl-1H-pyrazol-4-yl)pyrrolidin-1-yl)-1-(6-(3-(dimethyl-amino)azetidin-1-yl)pyridin-3-yl)-4-oxo-1,4-dihydro-quinoline-3-carboxylic acid]",≤ 1
11,"CN(C)C1CN(c2ccc(-n3cc(C(=O)O)c(=O)c4cc(F)c(N5CC(c6ccc(O)nc6)C[C@@H]5COc5ncccc5Cl)cc43)cn2)C1 (mixture of isomers) [Compound 189, rac-7-((2R)-2-(((3-chloropyridin-2-yl)oxy)methyl)-4-(6-hydroxy-pyridin-3-yl)pyrrolidin-1-yl)-1-(6-(3-(dimethyl-amino)azetidin-1-yl)pyridin-3-yl)-6-fluoro-4-oxo-1,4-dihydro-quinoline-3-carboxylic acid]",≤ 1
12,"Nc1ccc(-n2cc(C(=O)O)c(=O)c3cc(Cl)c(N4CCC[C@@H]4COc4ncccc4Cl)nc32)cn1 (racemic) [Compound 190, rac-(R)-1-(6-aminopyridin-3-yl)-6-chloro-7-(2-(((3-chloropyridin-2-yl)oxy)methyl)pyrrolidin-1-yl)-4-oxo-1,4-dihydro-1,8-naphthyridine-3-carboxylic acid]",≤ 1
13,"Cn1cc(-n2cc(C(=O)O)c(=O)c3cc(Cl)c(N4CCC[C@@H]4COc4ncccc4Cl)nc32)cn1 (racemic) [Compound 191, rac-(R)-6-chloro-7-(2-(((3-chloropyridin-2-yl)oxy)methyl)pyrrolidin-1-yl)-1-(1-methyl-1H-pyrazol-4-yl)-4-oxo-1,4-dihydro-1,8-naphthyridine-3-carboxylic acid]",≤ 1
14,"O=C(O)c1cn(-c2cnn(C3CNC3)c2)c2nc(N3CCC[C@@H]3COc3ncccc3F)c(Cl)cc2c1=O (racemic) [Compound 192, rac-(R)-1-(1-(azetidin-3-yl)-1H-pyrazol-4-yl)-6-chloro-7-(2-(((3-fluoropyridin-2-yl)oxy)methyl)pyrrolidin-1-yl)-4-oxo-1,4-dihydro-1,8-naphthyridine-3-carboxylic acid hydrochloride]",≤ 1
